From ChEMBL document CHEMBL4270599, “Synthesis of a 3'-C-ethynyl-β-d-ribofuranose purine nucleoside library: Discovery of C7-deazapurine analogs as potent antiproliferative nucleosides” (Eur J Med Chem, 2018) come the findings set out here.

What all share (assay type): functional
One assay relates to M14. Briefly: Growth inhibition of human M14 cells assessed as cell growth at 10^-8 M incubated for 48 hrs by sulforhodamine B assay relative to control. As to conditions: M14, 48 h, read-out: Activity.
For a further assay, the system named is NCI-H23. Briefly: Growth inhibition of human NCI-H23 cells assessed as cell growth at 10^-7 M incubated for 48 hrs by sulforhodamine B assay relative to control. Conditions: NCI-H23, 48 h, read-out: Activity. (In general: In SRB staining, fixed cells bind dye roughly in proportion to their protein.)
For another assay, the system named is RXF 393. The experiment in a line: Growth inhibition of human RXF393 cells assessed as cell growth at 10^-8 M incubated for 48 hrs by sulforhodamine B assay relative to control. Conditions: RXF 393, 48 h, read-out: Activity.
Another assay relates to HL-60(TB). The experiment in a line: Cytotoxicity against human HL-60(TB) cells after 48 hrs by SRB assay. Conditions: HL-60, 48 h; for GI50: read-out: GI50; for TGI: read-out: TGI; for CC50: read-out: pLC50 (the source's name) (converted).
The subject of another assay is NCI-H226. Briefly: Growth inhibition of human NCI-H226 cells assessed as cell growth at 10^-4 M incubated for 48 hrs by sulforhodamine B assay relative to control. As to conditions: NCI-H226, 48 h, read-out: Activity.
The subject of the next assay is T47D. The experiment in a line: Cytotoxicity against human T47D cells after 48 hrs by SRB assay. As to conditions: for CC50: read-out: pLC50 (the source's name) (converted).
The next assay deals with HT-29. The experiment in a line: Growth inhibition of human HT-29 cells assessed as cell growth at 10^-5 M incubated for 48 hrs by sulforhodamine B assay relative to control. As to conditions: HT-29, 48 h, read-out: Activity.

Molecules are shown by their SMILES.

On to `C#C[C@@]1(O)[C@@H](CO)O[C@@H](n2cc(I)c3c(N)ncnc32)[C@@H]1O`, for which the growth at 0.01 µM in the assay on M14 was in the range of 85 to 94%; with RXF 393, 94 to 102%. The growth at 0.1 µM in the assay with NCI-H23 fell in the range of 67 to 75%. Also, the GI50 in the assay with HL-60(TB) was 31.5 to 67.8 nM; in the assay with T47D (read-out: pGI50 (converted)) it was < 10 nM. Besides, the TGI in the assay on HL-60(TB) lay within 200 to 343 nM; in the assay on T47D (read-out: TGI) it was 51 to 315 nM. The CC50 in the assay on HL-60(TB) and in the assay with T47D was > 100000 nM each time. For the same compound, in the assay on NCI-H226, the growth at 100 µM was in the range of 4 to 16%.
Regarding `C#C[C@@]1(O)[C@@H](CO)O[C@@H](n2cc(Br)c3c(N)ncnc32)[C@@H]1O`, the growth at 0.01 µM was 92 to 94% in the assay on M14 and 99% in the assay on RXF 393. For the same compound, in the assay with NCI-H23, the growth at 0.1 µM was in the range of 61 to 70%. Also, in the assay on HT-29, the growth at 10 µM was in the range of 1 to 3%. Also, the GI50 was in the range of 21.8 to 71.6 nM with HL-60(TB) and 17.3 to 43.2 nM in the assay with T47D (read-out: GI50). Also, the TGI with HL-60(TB) was 75.7 to 313 nM; in the assay with T47D (read-out: TGI) it was 177 nM; with T47D (read-out: pTGI (converted)), 178 nM. The values for the CC50 with HL-60(TB) and in the assay on T47D were 5250 nM and > 100000 nM, respectively. The growth at 100 µM with NCI-H226 came out at 23%.
